Experimental data reported in US20240109917A1 (ACTELION PHARMACEUTICALS LTD, priority 2020, published 2024).

Assays:
[1] = target: Tb-labeled inactive PDGFRβ (Homo sapiens (Human), UniProt P09619); assay: PDGFRβ LanthaScreen Assay; format: binding; conditions: read-out: PDGFR Lantha IC50
PDGFRβ = PDGFRβ (Rattus norvegicus (Rat), UniProt Q05030); assay: PDGFRβ Cellular Assay (PDGFRb P-Y751 HTRF in A10 cells stimulated with PDGF-BB); format: cell-based; conditions: read-out: PDGFR Cellular IC50
How it was run: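 Rat A10 cells, plated overnight, were treated with compound for 3 hours, then stimulated with PDGF-BB (working stock 100 ng/mL in 10% FBS medium). After lysis, PDGFRβ P-Y751 was detected by HTRF.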

Chain of PDGFRβ (Q05030 32-1097): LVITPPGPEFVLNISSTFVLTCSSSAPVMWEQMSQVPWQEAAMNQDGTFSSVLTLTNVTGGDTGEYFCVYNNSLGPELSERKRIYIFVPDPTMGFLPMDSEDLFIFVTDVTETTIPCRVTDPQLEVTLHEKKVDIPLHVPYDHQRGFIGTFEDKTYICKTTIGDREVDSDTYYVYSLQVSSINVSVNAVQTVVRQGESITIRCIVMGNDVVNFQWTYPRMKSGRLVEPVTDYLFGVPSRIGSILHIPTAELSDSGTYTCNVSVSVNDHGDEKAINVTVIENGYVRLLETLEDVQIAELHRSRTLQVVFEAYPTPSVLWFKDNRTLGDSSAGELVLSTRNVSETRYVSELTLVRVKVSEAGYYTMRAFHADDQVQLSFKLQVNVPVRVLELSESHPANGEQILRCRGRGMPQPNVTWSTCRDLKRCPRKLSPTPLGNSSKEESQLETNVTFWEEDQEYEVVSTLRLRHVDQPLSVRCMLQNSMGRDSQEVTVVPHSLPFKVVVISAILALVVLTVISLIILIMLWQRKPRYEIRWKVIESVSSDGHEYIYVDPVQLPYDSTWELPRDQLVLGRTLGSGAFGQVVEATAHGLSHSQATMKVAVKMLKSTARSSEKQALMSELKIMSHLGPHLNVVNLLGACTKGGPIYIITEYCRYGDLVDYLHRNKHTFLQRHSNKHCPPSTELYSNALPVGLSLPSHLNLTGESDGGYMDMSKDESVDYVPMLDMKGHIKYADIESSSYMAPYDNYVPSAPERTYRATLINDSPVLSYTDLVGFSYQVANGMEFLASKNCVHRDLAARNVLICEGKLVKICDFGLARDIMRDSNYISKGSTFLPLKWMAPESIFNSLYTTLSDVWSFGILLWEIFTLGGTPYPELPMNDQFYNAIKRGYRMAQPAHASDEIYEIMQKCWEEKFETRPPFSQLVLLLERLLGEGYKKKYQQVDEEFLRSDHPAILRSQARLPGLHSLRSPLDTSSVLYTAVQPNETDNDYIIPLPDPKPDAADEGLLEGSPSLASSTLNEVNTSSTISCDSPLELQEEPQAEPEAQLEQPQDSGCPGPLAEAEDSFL
Chain of Tb-labeled inactive PDGFRβ (P09619 33-1106): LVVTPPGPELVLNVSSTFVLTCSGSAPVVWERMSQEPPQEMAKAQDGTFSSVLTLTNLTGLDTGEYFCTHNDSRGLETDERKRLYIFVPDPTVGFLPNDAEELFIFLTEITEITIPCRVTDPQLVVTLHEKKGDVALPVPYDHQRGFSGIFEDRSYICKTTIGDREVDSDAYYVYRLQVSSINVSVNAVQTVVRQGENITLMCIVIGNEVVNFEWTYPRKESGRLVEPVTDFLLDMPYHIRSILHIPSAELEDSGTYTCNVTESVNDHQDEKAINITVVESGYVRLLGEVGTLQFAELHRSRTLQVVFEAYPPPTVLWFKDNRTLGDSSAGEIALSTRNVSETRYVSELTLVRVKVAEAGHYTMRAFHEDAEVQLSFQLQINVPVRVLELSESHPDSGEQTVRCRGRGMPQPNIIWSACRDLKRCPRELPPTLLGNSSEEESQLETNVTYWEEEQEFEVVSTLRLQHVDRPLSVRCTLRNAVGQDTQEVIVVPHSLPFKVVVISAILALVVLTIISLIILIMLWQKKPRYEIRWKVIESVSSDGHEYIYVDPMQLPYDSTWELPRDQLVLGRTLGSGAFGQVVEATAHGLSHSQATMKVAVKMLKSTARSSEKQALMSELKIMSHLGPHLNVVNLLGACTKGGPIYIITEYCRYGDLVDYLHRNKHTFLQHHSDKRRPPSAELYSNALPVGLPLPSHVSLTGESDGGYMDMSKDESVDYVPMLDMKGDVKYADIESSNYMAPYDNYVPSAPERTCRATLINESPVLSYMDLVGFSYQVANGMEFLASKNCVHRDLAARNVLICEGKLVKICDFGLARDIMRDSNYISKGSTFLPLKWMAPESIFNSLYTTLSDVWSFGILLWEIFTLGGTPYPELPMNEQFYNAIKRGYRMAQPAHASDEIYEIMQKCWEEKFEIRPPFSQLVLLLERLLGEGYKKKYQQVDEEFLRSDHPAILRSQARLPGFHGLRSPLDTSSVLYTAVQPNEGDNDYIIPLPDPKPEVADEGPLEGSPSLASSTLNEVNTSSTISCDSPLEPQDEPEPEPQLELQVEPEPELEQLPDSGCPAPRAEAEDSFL

| Compound | IC50 [1] [nM] | IC50 (PDGFRβ) [nM] |
| --- | --- | --- |
| Cc1ncc(NC(=O)CN2Cc3cccnc3C2)cc1NC(=O)c1cnn2cc(-c3cnn(C)c3)sc12 [Example 48, N-(5-(2-(5H-pyrrolo[3,4-b]pyridin-6 (7H)-yl)acetamido)-2-methylpyridin-3-yl)-2-(1-methyl-1H-pyrazol-4-yl)pyrazolo[5,1-b]thiazole-7-carboxamide] | 16.8 | 49.3 |
| Cc1ncc(NC(=O)CN2CCC[C@@H]2C)cc1NC(=O)c1cnn2cc(-c3cnn(CCO)c3)sc12 [Example 84, (S)-2-(1-(2-hydroxyethyl)-1H-pyrazol-4-yl)-N-(2-methyl-5-(2-(2-methylpyrrolidin-1-yl)acetamido)pyridin-3-yl)pyrazolo[5,1-b]thiazole-7-carboxamide] | 10.9 | 40.2 |
| CC[C@@H]1COCCN1CC(=O)Nc1cnc(C)c(NC(=O)c2cnn3cc(-c4cnn(C)c4)sc23)c1 [Example 69, (R)—N-(5-(2-(3-ethylmorpholino)acetamido)-2-methylpyridin-3-yl)-2-(1-methyl-1H-pyrazol-4-yl)pyrazolo[5,1-b]thiazole-7-carboxamide] | 4.7 | 12.1 |
| Cc1ncc(NC(=O)CN2CCc3cnccc3C2)cc1NC(=O)c1cnn2cc(-c3cnn(C)c3)sc12 [Example 62, N-(5-(2-(3,4-dihydro-2,6-naphthyridin-2 (1H)-yl)acetamido)-2-methylpyridin-3-yl)-2-(1-methyl-1H-pyrazol-4-yl)pyrazolo[5,1-b]thiazole-7-carboxamide] | 17.6 | 111 |
| Cc1ncc(NC(=O)CN2C[C@@H](C)O[C@@H](C)C2)cc1NC(=O)c1cnn2cc(-c3cnn(C)c3)sc12 [Example 53, N-(5-(2-((2R,6S)-2,6-dimethylmorpholino)acetamido)-2-methylpyridin-3-yl)-2-(1-methyl-1H-pyrazol-4-yl)pyrazolo[5,1-b]thiazole-7-carboxamide] | 2.7 | 4.3 |
| COC1CCN(CC(=O)Nc2cnc(C)c(NC(=O)c3cnn4cc(-c5cnn(C)c5)sc34)c2)CC1 [Example 83, N-(5-(2-(4-methoxypiperidin-1-yl)acetamido)-2-methylpyridin-3-yl)-2-(1-methyl-1H-pyrazol-4-yl)pyrazolo[5,1-b]thiazole-7-carboxamide] | 35 | 44.1 |
| Cc1ncc(NC(=O)CN2Cc3ncsc3C2)cc1NC(=O)c1cnn2cc(-c3cnn(C)c3)sc12 [Example 76, N-(5-(2-(4H-pyrrolo[3,4-d]thiazol-5 (6H)-yl)acetamido)-2-methylpyridin-3-yl)-2-(1-methyl-1H-pyrazol-4-yl)pyrazolo[5,1-b]thiazole-7-carboxamide] | 8.9 | 36.9 |
| Cc1ncc(NC(=O)CN2[C@H](C)COC[C@@H]2C)cc1NC(=O)c1cnn2cc(-c3cnn(C)c3)sc12 [Example 71, N-(5-(2-((3S,5R)-3,5-dimethylmorpholino)acetamido)-2-methylpyridin-3-yl)-2-(1-methyl-1H-pyrazol-4-yl)pyrazolo[5,1-b]thiazole-7-carboxamide] | 47.9 | 90.9 |
| Cc1ncc(NC(=O)CN2CC3CC(C2)O3)cc1NC(=O)c1cnn2cc(-c3cnn(C)c3)sc12 [Example 45, N-(5-(2-(6-oxa-3-azabicyclo[3.1.1]heptan-3-yl)acetamido)-2-methylpyridin-3-yl)-2-(1-methyl-1H-pyrazol-4-yl)pyrazolo[5,1-b]thiazole-7-carboxamide] | 31 | 75.4 |
| Cc1ncc(NC(=O)CNC2CCC2)cc1NC(=O)c1cnn2cc(-c3cnn4c3OCCC4)sc12 [Example 494, N-(5-(2-(cyclobutylamino)acetamido)-2-methylpyridin-3-yl)-2-(6,7-dihydro-5H-pyrazolo[5,1-b][1,3]oxazin-3-yl)pyrazolo[5,1-b]thiazole-7-carboxamide] | 3.9 | 9.6 |
| Cc1ncc(NC(=O)CN2CCS(=O)(=O)CC2)cc1NC(=O)c1cnn2cc(-c3cnn(C)c3)sc12 [Example 59, N-(5-(2-(1,1-dioxidothiomorpholino)acetamido)-2-methylpyridin-3-yl)-2-(1-methyl-1H-pyrazol-4-yl)pyrazolo[5,1-b]thiazole-7-carboxamide] | 93.9 | > 3000 |
| Cc1ncc(NC(=O)CN2CCc3scnc3C2)cc1NC(=O)c1cnn2cc(-c3cnn(C)c3)sc12 [Example 61, N-(5-(2-(6,7-dihydrothiazolo[4,5-c]pyridin-5 (4H)-yl)acetamido)-2-methylpyridin-3-yl)-2-(1-methyl-1H-pyrazol-4-yl)pyrazolo[5,1-b]thiazole-7-carboxamide] | 12.3 | 43.6 |
| COCCn1cc(-c2cn3ncc(C(=O)Nc4cc(NC(=O)CCN5CCC6(CC6)C5)cnc4C)c3s2)cn1 [Example 91, N-(5-(3-(5-azaspiro[2.4]heptan-5-yl)propanamido)-2-methylpyridin-3-yl)-2-(1-(2-methoxyethyl)-1H-pyrazol-4-yl)pyrazolo[5,1-b]thiazole-7-carboxamide] | 13.2 | 36.4 |
| CC[C@@H]1CN(CC(=O)Nc2cnc(C)c(NC(=O)c3cnn4cc(-c5cnn(C)c5)sc34)c2)CCO1 [Example 65, (R)—N-(5-(2-(2-ethylmorpholino)acetamido)-2-methylpyridin-3-yl)-2-(1-methyl-1H-pyrazol-4-yl)pyrazolo[5,1-b]thiazole-7-carboxamide] | 16.5 | 6.8 |
| Cc1ncc(NC(=O)CCN2CCCC2(C)C)cc1NC(=O)c1cnn2cc(-c3cnn(C)c3)sc12 [Example 42, N-(5-(3-(2,2-dimethylpyrrolidin-1-yl)propanamido)-2-methyl-pyridin-3-yl)-2-(1-methyl-1H-pyrazol-4-yl)pyrazolo[5,1-b]thiazole-7-carboxamide] | 3.8 | 5.9 |
| CC[C@H]1CN(CC(=O)Nc2cnc(C)c(NC(=O)c3cnn4cc(-c5cnn(C)c5)sc34)c2)CCO1 [Example 66, (S)—N-(5-(2-(2-ethylmorpholino)acetamido)-2-methylpyridin-3-yl)-2-(1-methyl-1H-pyrazol-4-yl)pyrazolo[5,1-b]thiazole-7-carboxamide] | 2.6 | 4.6 |
| Cc1ncc(C(=O)NCCN2CCCC23CCC3)cc1NC(=O)c1cnn2cc(-c3cnn(C)c3)sc12 [Example 3, N-(5-((2-(5-azaspiro[3.4]octan-5-yl)ethyl)carbamoyl)-2-methylpyridin-3-yl)-2-(1-methyl-1H-pyrazol-4-yl)pyrazolo[5,1-b]thiazole-7-carboxamide] | 4 | 6 |
| Cc1ncc(NC(=O)CN2CCc3ncsc3C2)cc1NC(=O)c1cnn2cc(-c3cnn(C)c3)sc12 [Example 58, N-(5-(2-(6,7-dihydrothiazolo[5,4-c]pyridin-5 (4H)-yl)acetamido)-2-methylpyridin-3-yl)-2-(1-methyl-1H-pyrazol-4-yl)pyrazolo[5,1-b]thiazole-7-carboxamide] | 12.5 | 52.9 |
| COCCn1cc(-c2cn3ncc(C(=O)Nc4cc(NC(=O)C(C)(C)CN5CCCC5(C)C)cnc4C)c3s2)cn1 [Example 488, N-(5-(3-(2,2-dimethylpyrrolidin-1-yl)-2,2-dimethyl-propanamido)-2-methylpyridin-3-yl)-2-(1-(2-methoxyethyl)-1H-pyrazol-4-yl)pyrazolo[5,1-b]thiazole-7-carboxamide] | 1280 | 375 |
| Cc1ncc(NC(=O)CN2CCCCC23CC3)cc1NC(=O)c1cnn2cc(-c3cnn(CCO)c3)sc12 [Example 86, N-(5-(2-(4-azaspiro[2.5]octan-4-yl)acetamido)-2-methylpyridin-3-yl)-2-(1-(2-hydroxyethyl)-1H-pyrazol-4-yl)pyrazolo[5,1-b]thiazole-7-carboxamide] | 7.3 | 18.4 |
| Cc1ncc(NC(=O)CN2Cc3ccncc3C2)cc1NC(=O)c1cnn2cc(-c3cnn(C)c3)sc12 [Example 77, N-(5-(2-(1H-pyrrolo[3,4-c]pyridin-2 (3H)-yl)acetamido)-2-methylpyridin-3-yl)-2-(1-methyl-1H-pyrazol-4-yl)pyrazolo[5,1-b]thiazole-7-carboxamide] | 15.9 | 78.9 |
| COCCn1cc(-c2cn3ncc(C(=O)Nc4cc(NC(=O)C[C@H]5CCCN5C(C)C)cnc4C)c3s2)cn1 [Example 485, (R)—N-(5-(2-(1-isopropylpyrrolidin-2-yl)acetamido)-2-methylpyridin-3-yl)-2-(1-(2-methoxyethyl)-1H-pyrazol-4-yl)pyrazolo[5,1-b]thiazole-7-carboxamide] | 16.3 | 34.4 |
| Cc1ncc(NC(=O)CCN2CC3CCC2CC3)cc1NC(=O)c1cnn2cc(-c3cnn(C)c3)sc12 [Example 43, N-(5-(3-(2-azabicyclo[2.2.2]octan-2-yl)propanamido)-2-methylpyridin-3-yl)-2-(1-methyl-1H-pyrazol-4-yl)pyrazolo[5,1-b]thiazole-7-carboxamide] | 3.9 | 7.2 |
| COCCn1cc(-c2cn3ncc(C(=O)Nc4cc(NC(=O)C5(CN6CCCC6(C)C)CC5)cnc4C)c3s2)cn1 [Example 487, N-(5-(1-((2,2-dimethylpyrrolidin-1-yl)methyl)cyclopropane-carboxamido)-2-methylpyridin-3-yl)-2-(1-(2-methoxyethyl)-1H-pyrazol-4-yl)pyrazolo[5,1-b]thiazole-7-carboxamide] | 197 | 42.6 |
| Cc1ncc(NC(=O)CN2CCc3c(cnn3C)C2)cc1NC(=O)c1cnn2cc(-c3cnn(C)c3)sc12 [Example 57, 2-(1-methyl-1H-pyrazol-4-yl)-N-(2-methyl-5-(2-(1-methyl-6,7-dihydro-1H-pyrazolo[4,3-c]pyridin-5 (4H)-yl)acetamido)pyridin-3-yl)pyrazolo[5,1-b]thiazole-7-carboxamide] | 10.8 | 124 |
